Test results as given in patent publication US9242945B2, “Substituted 2-benzylidene-2H-benzo[b][1,4]thiazin-3(4H)-ones, derivatives thereof, and therapeutic uses thereof” (TEMPLE UNIVERSITY—OF THE COMMONWEALTH SYSTEM OF HIGHER …, priority 2011, dated 2016).
Like-named read-outs stand apart in the source and are kept apart here.

Legend:
[1] = test system: K562 (chronic myelogenous leukemia; leukemia cell line +ve for Bcr-Abl); assay: Cytotoxicity assay, K562 tumor cells; format: cell-based; details: Homo sapiens, K562, 96 h treatment
Method: (§1) The effect of the compounds of the invention on tumor cells was determined by the assay described by Latham et al., Oncogene 12:827-837 (1996). Tumor cells K562 (chronic myelogenous leukemia; leukemia cell line +ve for Bcr-Abl) or DU145 (prostate cancer) were plated in 12-well dishes at a cell density of 2.5×10^4 cells well. The plated cells were treated 24 hours later with a compound of the invention dissolved in DMSO at multiple concentrations ranging from 0.01 μM to 100 μM. The plates were examined 96 hours later under an inverted microscope, Olympus CK-2 using a 10× objective, and compound activity was noted by physical observation. When necessary, the total number of viable cells was determined by trypsinizing the wells and counting the number of viable cells, as determined by trypan blue exclusion, using a hemacytometer. Where “Lower” and “Upper” value are provided in Table 5, the IC50 was determined to be within that range. When only a “Lower” value is provided and no “Upper” value is listed, the IC50 was that value, or less than or greater than that value, as set forth in the Table.
(§2) The cytotoxicity of Compound 42, (Z)-6-((2,6-dichlorobenzyl)sulfonyl)-2-(4-hydroxy-3-nitrobenzylidene)-2H-benzo[b][1,4]thiazin-3(4H)-one, was determined according the assay method of Example 7 on the prostate (androgen dependent or independent), breast and pancreatic cancer cell lines listed in Table 6A, below, and the additional cell lines listed in Table 6B, below. The human mesenchymal stem cell line HMSC.hTERT and normal human fibroblast cell line HFL was included in the test.

DU145 (prostate cancer) = assay: Cytotoxicity assay, DU145 tumor cells; format: cell-based; details: Homo sapiens, DU-145, 96 h treatment
Method: as §1, §2

[2] = lower limit of the IC50 range, or the IC50 itself (or its bound) where no Upper value is listed, read-out: K562 IC50 (μm) Lower (μm)
[3] = upper limit of the IC50 range, read-out: K562 IC50 (μm) Upper (μm)
[4] = lower limit of the IC50 range, or the IC50 itself (or its bound) where no Upper value is listed, read-out: DU145 IC50 (μm) Lower (μm)
[5] = upper limit of the IC50 range, read-out: DU145 IC50 (μm) Upper (μm)

CC(=O)Oc1ccc(/C=C2\Sc3ccc(Cl)cc3NC2=O)cc1[N+](=O)[O-] [Compound 1, (Z)-4-((6-chloro-3-oxo-3,4-dihydro-2H-benzo[b][1,4]thiazin-2-ylidene)methyl)-2-nitrophenyl acetate]
IC50 [1, 2]: ≥ 10000 nM | IC50 [1, 3]: ≤ 25000 nM | IC50 (DU145 (prostate cancer); [4]): ≥ 1000 nM | IC50 (DU145 (prostate cancer); [5]): ≤ 10000 nM

COc1ccc2c(c1)S/C(=C\c1ccc(OC(C)=O)c([N+](=O)[O-])c1)C(=O)N2 [Compound 2, (Z)-4-((7-methoxy-3-oxo-3,4-dihydro-2H-benzo[b][1,4]thiazin-2-ylidene)methyl)-2-nitrophenyl acetate]
IC50 [1, 2]: ≥ 1000 nM | IC50 [1, 3]: ≤ 10000 nM | IC50 (DU145 (prostate cancer); [4]): ≥ 1000 nM | IC50 (DU145 (prostate cancer); [5]): ≤ 10000 nM

CC(=O)Oc1ccc(/C=C2\Sc3cc(Br)ccc3NC2=O)cc1[N+](=O)[O-] [Compound 3, (Z)-4-((7-bromo-3-oxo-3,4-dihydro-2H-benzo[b][1,4]thiazin-2-ylidene)methyl)-2-nitrophenyl acetate]
IC50 [1, 2]: ≥ 1000 nM | IC50 [1, 3]: ≤ 10000 nM | IC50 (DU145 (prostate cancer); [4]): ≥ 10000 nM | IC50 (DU145 (prostate cancer); [5]): ≤ 25000 nM

CC(=O)Oc1ccc(/C=C2\Sc3cc(C)ccc3NC2=O)cc1[N+](=O)[O-] [Compound 4, (Z)-4-((7-methyl-3-oxo-3,4-dihydro-2H-benzo[b][1,4]thiazin-2-ylidene)methyl)-2-nitrophenyl acetate]
IC50 [1, 2]: ≥ 1000 nM | IC50 [1, 3]: ≤ 10000 nM | IC50 (DU145 (prostate cancer); [4]): ≥ 1000 nM | IC50 (DU145 (prostate cancer); [5]): ≤ 10000 nM

CC(=O)Oc1ccc(/C=C2\Sc3cc(C(=O)O)ccc3NC2=O)cc1[N+](=O)[O-] [Compound 5, (Z)-2-(4-acetoxy-3-nitrobenzylidene)-3-oxo-3,4-dihydro-2H-benzo[b][1,4]thiazine-7-carboxylic acid]
IC50 [1, 2]: ≥ 50000 nM | IC50 [1, 3]: ≤ 100000 nM | IC50 (DU145 (prostate cancer); [4]): > 100000 nM

CC(=O)Oc1ccc(/C=C2\Sc3cc(F)ccc3NC2=O)cc1[N+](=O)[O-] [Compound 6, (Z)-4-((7-fluoro-3-oxo-3,4-dihydro-2H-benzo[b][1,4]thiazin-2-ylidene)methyl)-2-nitrophenyl acetate]
IC50 [1, 2]: ≥ 1000 nM | IC50 [1, 3]: ≤ 10000 nM | IC50 (DU145 (prostate cancer); [5]): ≤ 1000 nM

CC(=O)Oc1ccc(/C=C2\Sc3ccc(F)cc3NC2=O)cc1[N+](=O)[O-] [Compound 7, (Z)-4-((6-fluoro-3-oxo-3,4-dihydro-2H-benzo[b][1,4]thiazin-2-ylidene)methyl)-2-nitrophenyl acetate]
IC50 [1, 2]: ≥ 1000 nM | IC50 [1, 3]: ≤ 10000 nM | IC50 (DU145 (prostate cancer); [4]): ≥ 1000 nM | IC50 (DU145 (prostate cancer); [5]): ≤ 10000 nM

CC(=O)Oc1ccc(/C=C2\Sc3ccc(S(=O)(=O)Cc4c(Cl)cccc4Cl)cc3NC2=O)cc1[N+](=O)[O-] [Compound 8, (Z)-4-((6-((2,6-dichlorobenzyl)sulfonyl)-3-oxo-3,4-dihydro-2H-benzo[b][1,4]thiazin-2-ylidene)methyl)-2-nitrophenyl acetate]
IC50 [1, 2]: 75 nM | IC50 (DU145 (prostate cancer); [4]): 100 nM

CC(=O)Oc1ccc(/C=C2\Sc3ccc(S(=O)(=O)Cc4c(Cl)cccc4Cl)cc3NC2=O)cc1 [Compound 9, (Z)-4-((6-((2,6-dichlorobenzyl)sulfonyl)-3-oxo-3,4-dihydro-2H-benzo[b][1,4]thiazin-2-ylidene)methyl)phenyl acetate]
IC50 [1, 2]: < 1000 nM | IC50 (DU145 (prostate cancer); [4]): < 1000 nM

O=C1Nc2cc(S(=O)(=O)Cc3c(Cl)cccc3Cl)ccc2S/C1=C\c1ccccc1 [Compound 10, (Z)-2-benzylidene-6-((2,6-dichlorobenzyl)sulfonyl)-2H-benzo[b][1,4]thiazin-3(4H)-one]
IC50 [1, 2]: ≥ 1000 nM | IC50 [1, 3]: ≤ 10000 nM | IC50 (DU145 (prostate cancer); [4]): < 1000 nM

COc1ccc(/C=C2\Sc3ccc(S(=O)(=O)Cc4c(Cl)cccc4Cl)cc3NC2=O)cc1[N+](=O)[O-] [Compound 11, (Z)-6-((2,6-dichlorobenzyl)sulfonyl)-2-(4-methoxy-3-nitrobenzylidene)-2H-benzo[b][1,4]thiazin-3(4H)-one]
IC50 [1, 2]: ≥ 250 nM | IC50 [1, 3]: ≤ 500 nM | IC50 (DU145 (prostate cancer); [4]): ≥ 250 nM | IC50 (DU145 (prostate cancer); [5]): ≤ 500 nM

COc1ccc(/C=C2\Sc3ccc(S(=O)(=O)Cc4c(Cl)cccc4Cl)cc3NC2=O)cc1N [Compound 12, (Z)-2-(3-amino-4-methoxybenzylidene)-6-((2,6-dichlorobenzyl)sulfonyl)-2H-benzo[b][1,4]thiazin-3(4H)-one]
IC50 [1, 2]: ≥ 100 nM | IC50 [1, 3]: ≤ 250 nM | IC50 (DU145 (prostate cancer); [4]): ≥ 250 nM | IC50 (DU145 (prostate cancer); [5]): ≤ 500 nM
